One may read the IC50 as the concentration that inhibits the measured activity by half.

Data on 30 compounds can be found in US20060116390A1, “Hepatitis c virus inhibitors” (priority 2003, published 2006).

Read-outs that look alike come from different tables or passages of the source.

For this assay, the system named is HCV proteins in Rep5.1 cells (replicon cell line). Put plainly: Inhibitory activity of HCV: cell-based ELISA in replicon cell line Rep5.1 (decrease of HCV proteins). To be noted: Rep5.1 cells, 72 hours with drug. Details: species or system hepatitis C virus. The gist of the method:
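HCV protein loss was quantified by ELISA on methanol/acetone-fixed cells 72 h after drug addition, probing with selected HCV-positive human plasma, and IC50 was defined as 50% reduction relative to untreated wells. The cells were Rep5.1 replicon cells cultured in DMEM-10 with 500 μg/ml G418, plated at 5000 per well and dosed with serial dilutions after 4 h attachment.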
(In general: In an ELISA, binding on a coated surface is turned into a signal by an enzyme label.)

Setting [1] is: Hepatitis C virus, 72 h, concentration at which 50% of HCV proteins was decreased, Table 2, read-out: IC50.
The mark [2] stands for this setting: Hepatitis C virus, 72 h, decrease of HCV proteins measured by HCV antibody, Table 1, read-out: Level (IC50 values classified).
Setting [3] is: concentration at which 50% of HCV proteins was decreased, Table 2, read-out: IC50.

As for `CC1=C(C(=O)OCCc2c(F)cccc2F)C(CO)NC(=S)N1` (stereo not shown) [39″, 4-hydroxymethyl-6-methyl-2-thioxo-1,2,3,4-tetrahydro-pyrimidine-5-carboxylic acid 2-(2,6-difluoro-phenyl)-ethyl ester], the IC50 was 20 µM under setting [1] and 10 to 20 µM under setting [2].

As to `COc1cscc1CCOC(=O)C1=C(C)NC(=S)NC1` [40′, 6-methyl-2-thioxo-1,2,3,4-tetrahydro-pyrimidine-5-carboxylic acid 2-(4-methoxy-thiophen-3-yl)-ethyl ester], the IC50 was 0.6 µM under setting [1] and below 1 µM under setting [2].

Take `CC1=C(C(=O)OCC#Cc2ccccc2)C(CO)NC(=S)N1` (stereo not shown) [40″, 4-hydroxymethyl-6-methyl-2-thioxo-1,2,3,4-tetrahydro-pyrimidine-5-carboxylic acid 3-phenyl-prop-2-inyl ester]: under setting [3], the IC50 is above 100 µM.

Consider `COc1cscc1CCOC(=O)C1=C(C)NC(=S)NC1CF` (stereo not shown) [41′, 4-fluoromethyl-6-methyl-2-thioxo-1,2,3,4-tetrahydro-pyrimidine-5-carboxylic acid 2-(4-methoxy-thiophen-3-yl)-ethyl ester], for which the IC50 reads like this: under setting [1], 15 µM; under setting [2], 10 to 20 µM.

Take `CC1=C(C(=O)OCCc2ccccc2Cl)C(CO)NC(=S)N1` (stereo not shown) [41″, 4-hydroxymethyl-6-methyl-2-thioxo-1,2,3,4-tetrahydro-pyrimidine-5-carboxylic acid 2-(2-chloro-phenyl)-ethyl ester]: the IC50 by setting is: under setting [1], 7.2 µM; under setting [2], 1 to 10 µM.

`COc1ccccc1CCOC(=O)C1=C(C)NC(=S)NC1CF` (stereo not shown) [42′, 4-fluoromethyl-6-methyl-2-thioxo-1,2,3,4-tetrahydro-pyrimidine-5-carboxylic acid 2-(2-methoxy-phenyl)-ethyl ester]: the IC50 under setting [1] was 4.1 µM and the IC50 under setting [2] is 1 to 10 µM.

Turning to `CC1=C(C(=O)OCCc2ccc(Cl)c(Cl)c2)C(CO)NC(=S)N1` (stereo not shown) [42″, 4-hydroxymethyl-6-methyl-2-thioxo-1,2,3,4-tetrahydro-pyrimidine-5-carboxylic acid 2-(3,4-dichloro-phenyl)-ethyl ester], the IC50 runs as follows: under setting [1], below 0.4 µM; under setting [2], below 1 µM.

For the compound `COc1ccc(CCCOC(=O)C2=C(C)NC(=S)NC2CF)cc1` (stereo not shown) [43′, 4-fluoromethyl-6-methyl-2-thioxo-1,2,3,4-tetrahydro-pyrimidine-5-carboxylic acid 3-(4-methoxy-phenyl)-propyl ester], the IC50 under setting [1] worked out at 1.8 µM and the IC50 under setting [2] is 1 to 10 µM.

`CC1=C(C(=O)OCCc2ccc(Cl)cc2Cl)C(CO)NC(=S)N1` (stereo not shown) [43″, 4-hydroxymethyl-6-methyl-2-thioxo-1,2,3,4-tetrahydro-pyrimidine-5-carboxylic acid 2-(2,4-dichloro-phenyl)-ethyl ester]: the IC50 is, setting by setting: under setting [1], below 0.4 µM; under setting [2], below 1 µM.

For the compound `CC1=C(C(=O)OCC2CC=CCC2)C(CF)NC(=S)N1` (stereo not shown) [44′, 4-fluoromethyl-6-methyl-2-thioxo-1,2,3,4-tetrahydro-pyrimidine-5-carboxylic acid cyclohex-3-enylmethyl ester], the IC50 runs as follows: under setting [1], 2.8 µM; under setting [2], 1 to 10 µM.

With `CC(=O)OCC1NC(=S)NC(C)=C1C(=O)OCCc1cccc(Cl)c1` (stereo not shown) [44″, 4-acetoxymethyl-6-methyl-2-thioxo-1,2,3,4-tetrahydro-pyrimidine-5-carboxylic acid 2-(3-chloro-phenyl)-ethyl ester], the IC50 runs as follows: under setting [1], 5 µM; under setting [2], 1 to 10 µM.

For `CC1=C(C(=O)OCC#Cc2ccccc2)C(CF)NC(=S)N1` (stereo not shown) [45′, 4-fluoromethyl-6-methyl-2-thioxo-1,2,3,4-tetrahydro-pyrimidine-5-carboxylic acid 3-phenyl-prop-2-inyl ester], under setting [3], the IC50 turned out to be 0.8 µM.

For the compound `CSc1ccc(CCOC(=O)C2=C(C)NC(=S)NC2CO)cc1` (stereo not shown) [45″, 4-hydroxymethyl-6-methyl-2-thioxo-1,2,3,4-tetrahydro-pyrimidine-5-carboxylic acid 2-(4-methylsulfanyl-phenyl)-ethyl ester], the IC50 is 2.7 µM under setting [1] and 1 to 10 µM under setting [2].

On to `CC1=C(C(=O)OCCSc2nc3ccccc3o2)C(CF)NC(=S)N1` (stereo not shown) [46′, 4-fluoromethyl-6-methyl-2-thioxo-1,2,3,4-tetrahydro-pyrimidine-5-carboxylic acid 2-(benzoxazol-2-ylsulfanyl)-ethyl ester], for which the IC50 reads like this: under setting [1], 6 µM; under setting [2], 1 to 10 µM.

For the compound `CC1=C(C(=O)OCc2cccc(Oc3ccccc3)c2)C(CO)NC(=S)N1` (stereo not shown) [46″, 4-hydroxymethyl-6-methyl-2-thioxo-1,2,3,4-tetrahydro-pyrimidine-5-carboxylic acid 3-phenoxy-benzyl ester], the IC50 was below 0.4 µM under setting [1] and below 1 µM under setting [2].

Turning to `CC1=C(C(=O)OCc2cc(C)on2)CNC(=S)N1` [47′, 6-methyl-2-thioxo-1,2,3,4-tetrahydro-pyrimidine-5-carboxylic acid 5-methyl-isoxazol-3-ylmethyl ester], the IC50 is 100 µM under setting [1] and above 20 µM under setting [2].

For the compound `CC1=C(C(=O)OCc2cc(Cl)ccc2[N+](=O)[O-])C(CO)NC(=S)N1` (stereo not shown) [47″, 4-hydroxymethyl-6-methyl-2-thioxo-1,2,3,4-tetrahydro-pyrimidine-5-carboxylic acid 5-chloro-2-nitro-benzyl ester], the IC50 by setting is: under setting [1], above 100 µM; under setting [2], above 20 µM.

Take `CC1=C(C(=O)OCCCn2c(=O)sc3ccccc32)C(CF)NC(=S)N1` (stereo not shown) [48′, 4-fluoromethyl-6-methyl-2-thioxo-1,2,3,4-tetrahydro-pyrimidine-5-carboxylic acid 3-(2-oxo-benzothiazol-3-yl)-propyl ester]: the IC50 was 21 µM under setting [1] and above 20 µM under setting [2].

With `CC1=C(C(=O)OCc2ccc(F)cc2Cl)C(CO)NC(=S)N1` (stereo not shown) [48″, 4-hydroxymethyl-6-methyl-2-thioxo-1,2,3,4-tetrahydro-pyrimidine-5-carboxylic acid 2-chloro-4-fluoro-benzyl ester], the IC50 reads like this: under setting [1], 43 µM; under setting [2], above 20 µM.

In the case of `CC1=C(C(=O)OCCC[S+]([O-])c2nc3ccccc3o2)C(CF)NC(=S)N1` (stereo not shown) [49′, 4-fluoromethyl-6-methyl-2-thioxo-1,2,3,4-tetrahydro-pyrimidine-5-carboxylic acid 3-(benzoxazol-2-ylsulfinyl)-propyl ester], the IC50 runs as follows: under setting [1], 8 µM; under setting [2], 1 to 10 µM.

As to `CCOC(=O)OCC1NC(=S)NC(C)=C1C(=O)OCCc1cccc(Cl)c1` (stereo not shown) [49″, 4-ethoxycarbonyloxymethyl-6-methyl-2-thioxo-1,2,3,4-tetrahydro-pyrimidine-5-carboxylic acid 2-(3-chloro-phenyl)-ethyl ester], the 50% inhibitory concentration (IC50) runs as follows: under setting [1], 3 µM; under setting [2], 1 to 10 µM.

As to `CC1=C(C(=O)OCCc2ccsc2)C(c2cnc[nH]2)NC(=S)N1` (stereo not shown) [50′, 4-(3H-imidazol-4-yl)-6-methyl-2-thioxo-1,2,3,4-tetrahydro-pyrimidine-5-carboxylic acid 2-thiophen-3-yl-ethyl ester], the IC50 is, setting by setting: under setting [1], above 100 µM; under setting [2], above 20 µM.

As to `CC1=C(C(=O)OCc2cc(Cl)cc(Cl)c2)C(COS(C)(=O)=O)NC(=S)N1` (stereo not shown) [50″, 4-methanesulfonyloxymethyl-6-methyl-2-thioxo-1,2,3,4-tetrahydro-pyrimidine-5-carboxylic acid 3,5-dichloro-benzyl ester], the IC50 was 68 µM under setting [1] and above 20 µM under setting [2].

`CC1=C(C(=O)OCC2CCCCC2)C(CF)NC(=S)N1` (stereo not shown) [51′, 4-fluoromethyl-6-methyl-2-thioxo-1,2,3,4-tetrahydro-pyrimidine-5-carboxylic acid cyclohexylmethyl ester]: the IC50 was 5.4 µM under setting [1] and 1 to 10 µM under setting [2].

On to `CC1=C(C(=O)OCc2cccc(C(F)(F)F)c2)C(CO)NC(=S)N1` (stereo not shown) [51″, 4-hydroxymethyl-6-methyl-2-thioxo-1,2,3,4-tetrahydro-pyrimidine-5-carboxylic acid 3-trifluoromethyl-benzyl ester], for which the IC50 is, setting by setting: under setting [1], 2.3 µM; under setting [2], 1 to 10 µM.

Take `CC1=C(C(=O)OCCCc2ccsc2F)C(CF)NC(=S)N1` (stereo not shown) [52′, 4-fluoromethyl-6-methyl-2-thioxo-1,2,3,4-tetrahydro-pyrimidine-5-carboxylic acid 3-(2-fluoro-thiophen-3-yl)-propyl ester]: the IC50 is, setting by setting: under setting [1], 22 µM; under setting [2], above 20 µM.

Consider `CC1=C(C(=O)OCC2(c3ccc(Cl)cc3)CC2)C(CO)NC(=S)N1` (stereo not shown) [52″, 4-hydroxymethyl-6-methyl-2-thioxo-1,2,3,4-tetrahydro-pyrimidine-5-carboxylic acid 1-(4-chloro-phenyl)-cyclopropylmethyl ester], for which the IC50 is 10 µM under setting [1] and 1 to 10 µM under setting [2].

On to `CC1=C(C(=O)OCCCc2ccsc2)C(CF)NC(=S)N1` (stereo not shown) [53′, 4-fluoromethyl-6-methyl-2-thioxo-1,2,3,4-tetrahydro-pyrimidine-5-carboxylic acid 3-thiophen-3-yl-propyl ester], for which the IC50 is 18 µM under setting [1] and 10 to 20 µM under setting [2].

Regarding `CC1=C(C(=O)OCCc2c(F)cc(F)cc2F)C(CO)NC(=S)N1` (stereo not shown) [53″, 4-hydroxymethyl-6-methyl-2-thioxo-1,2,3,4-tetrahydro-pyrimidine-5-carboxylic acid 2-(2,4,6-trifluoro-phenyl)-ethyl ester], the IC50 is 7 µM under setting [1] and 1 to 10 µM under setting [2].

Take `CC1=C(C(=O)OCCOCCc2ccsc2)CNC(=S)N1` [54′, 6-methyl-2-thioxo-1,2,3,4-tetrahydro-pyrimidine-5-carboxylic acid 2-(2-thiophen-3-yl-ethoxy)-ethyl ester]: the IC50 under setting [1] was 5 µM and the 50% inhibitory concentration (IC50) under setting [2] fell in the range of 1 to 10 µM.
